The record followed here is US12410208B2, “(2-acetamidyl)thio-beta-D-galactopyranoside derivatives” (Idorsia Pharmaceuticals Ltd, priority 2020, dated 2025).

Like-named read-outs stand apart in the source and are kept apart here.

The IC50 is the concentration that gives 50% inhibition.

Experiment [1] addresses biotinylated human Gal-3 (hGal-3) (Homo sapiens, UniProt P17931). As to the kind of experiment: Competitive binding assay: biotinylated hGal-3 binding to microplate-adsorbed asialofetuin (ASF), spectrophotometric. Summed up: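 Serially diluted compounds competed with asialofetuin on the plate for biotinylated human Gal-3 during a 3 h incubation at 4° C. Streptavidin-peroxidase with ABTS gave the spectrophotometric signal. IC50 values were averaged over repeat runs.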

Another experiment has as its target human Gal-1 (hGal-1) (Homo sapiens, UniProt P09382). In words: Competitive binding assay: biotinylated hGal-1 binding to microplate-adsorbed asialofetuin (ASF), spectrophotometric. The conditions noted are these: hGal-1 binding to asialofetuin; Table 15; R and S epimers of selected Examples also listed; read-out: IC50 (Galectin-1 inhibition). The procedure, abridged: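 Spectrophotometric competition readout with ABTS after streptavidin-peroxidase (80 ng/mL, 1 h, 4 °C) detection of bound biotinylated hGal-1.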

Setting [2] is: Gal-3 inhibition, Table 5, read-out: IC50.
Where [3] appears, read: Table 12, hGal-3, read-out: IC50 (Gal-3 inhibition).

Sequence of human Gal-1 (hGal-1) (P09382 whole entry): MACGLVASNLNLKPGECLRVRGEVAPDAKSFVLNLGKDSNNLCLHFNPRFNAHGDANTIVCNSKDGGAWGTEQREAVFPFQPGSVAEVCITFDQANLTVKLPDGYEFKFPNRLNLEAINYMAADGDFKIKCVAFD
Sequence of biotinylated human Gal-3 (hGal-3) (P17931 whole entry): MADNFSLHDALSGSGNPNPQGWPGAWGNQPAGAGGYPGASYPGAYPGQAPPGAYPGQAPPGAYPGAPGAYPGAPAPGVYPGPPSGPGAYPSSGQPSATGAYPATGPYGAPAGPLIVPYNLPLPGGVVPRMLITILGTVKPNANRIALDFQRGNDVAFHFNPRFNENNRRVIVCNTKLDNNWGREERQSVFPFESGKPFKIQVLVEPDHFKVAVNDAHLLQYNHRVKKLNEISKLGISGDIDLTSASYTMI

`CO[C@@H]1[C@@H](n2cc(-c3cc(F)c(F)c(F)c3)nn2)[C@@H](O)[C@@H](CO)O[C@H]1S[C@H](C(=O)N1CCC(F)(F)CC1)C1(O)CCC2(CCCC2)CC1` [Example 2.71.226S.I., (S)-1-(4,4-Difluoropiperidin-1-yl)-2-(((2S,3R,4S,5R,6R)-5-hydroxy-6-(hydroxymethyl)-3-methoxy-4-(4-(3,4,5-trifluorophenyl)-1H-1,2,3-triazol-1-yl)tetrahydro-2H-pyran-2-yl)thio)-2-(8-hydroxyspiro[4.5]decan-8-yl)ethan-1-one]: the IC50 in experiment [1] (Table 13, hGal-3, read-out: IC50 (Gal-3 inhibition)) amounted to 100 nM; at human Gal-1 (hGal-1), 270 nM.
`CCN(C)C(=O)C(S[C@@H]1O[C@H](CO)[C@H](O)[C@H](n2cc(-c3cc(F)c(Cl)c(Cl)c3)nn2)[C@H]1O)C1(O)CCOCC1` (stereo partly drawn) [Example 17.41.203., 2-(((2S,3R,4S,5R,6R)-4-(4-(3,4-Dichloro-5-fluorophenyl)-1H-1,2,3-triazol-1-yl)-3,5-dihydroxy-6-(hydroxymethyl)tetrahydro-2H-pyran-2-yl)thio)-N-ethyl-2-(4-hydroxytetrahydro-2H-pyran-4-yl)-N-methylacetamide]: the half-inhibitory concentration (IC50) was found to be 40 nM in experiment [1] (Table 11, hGal-3, read-out: IC50 (Gal-3 inhibition)) and 140 nM at human Gal-1 (hGal-1).
Turning to `CCC(O)(CC)C(S[C@@H]1O[C@H](CO)[C@H](O)[C@H](n2cc(-c3cc(F)c(F)c(F)c3)nn2)[C@H]1O)C(=O)N(C)CC(C)(C)F` (stereo partly drawn) [Example 2.32.222., 2-(((2S,3R,4S,5R,6R)-3,5-Dihydroxy-6-(hydroxymethyl)-4-(4-(3,4,5-trifluorophenyl)-1H-1,2,3-triazol-1-yl)tetrahydro-2H-pyran-2-yl)thio)-3-ethyl-N-(2-fluoro-2-methylpropyl)-3-hydroxy-N-methylpentanamide], the IC50 in experiment [1] (Table 6, hGal-3, read-out: IC50 (Gal-3 inhibition)) stood at 360 nM; on human Gal-1 (hGal-1) it was 2060 nM.
Turning to `CCN(C)C(=O)[C@H](S[C@@H]1O[C@H](CO)[C@H](O)[C@H](n2cc(-c3cc(F)c(F)c(F)c3)nn2)[C@H]1O)C1(O)CC(F)(F)C1` [Example 2.33.203R., (R)-2-(3,3-Difluoro-1-hydroxycyclobutyl)-2-(((2S,3R,4S,5R,6R)-3,5-dihydroxy-6-(hydroxymethyl)-4-(4-(3,4,5-trifluorophenyl)-1H-1,2,3-triazol-1-yl)tetrahydro-2H-pyran-2-yl)thio)-N-ethyl-N-methylacetamide], the IC50 in experiment [1] (setting [2]) was 1450 nM; at human Gal-1 (hGal-1) it was 4200 nM.
For the compound `CC(C)(O)C(S[C@@H]1O[C@H](CO)[C@H](O)[C@H](n2cc(-c3cc(F)c(F)c(F)c3)nn2)[C@H]1O)C(=O)N1CCC1` (stereo partly drawn) [Example 2.31.206., 1-(Azetidin-1-yl)-2-(((2S,3R,4S,5R,6R)-3,5-dihydroxy-6-(hydroxymethyl)-4-(4-(3,4,5-trifluorophenyl)-1H-1,2,3-triazol-1-yl)tetrahydro-2H-pyran-2-yl)thio)-3-hydroxy-3-methylbutan-1-one], the IC50 in experiment [1] (Gal-3 inhibition, Table 3, read-out: IC50) is 200 nM; at human Gal-1 (hGal-1), 1400 nM.
As to `CO[C@@H]1[C@@H](n2cc(-c3cc(F)c(F)c(F)c3)nn2)[C@@H](O)[C@@H](CO)O[C@H]1SC(C(=O)N(C)C1COC1)C1(O)CCC(F)(F)CC1` (stereo partly drawn) [Example 2.44.243.I., 2-(4,4-Difluoro-1-hydroxycyclohexyl)-2-(((2S,3R,4S,5R,6R)-5-hydroxy-6-(hydroxymethyl)-3-methoxy-4-(4-(3,4,5-trifluorophenyl)-1H-1,2,3-triazol-1-yl)tetrahydro-2H-pyran-2-yl)thio)-N-methyl-N-(oxetan-3-yl)acetamide], the concentration for half-maximal inhibition (IC50) in experiment [1] (setting [3]) came to 110 nM; on human Gal-1 (hGal-1) it was 170 nM.
For the compound “(R)-N-Cyclobutyl-2-(4,4-difluoro-1-hydroxycyclohexyl)-2-(((2S,3R,4S,5R,6R)-3,5-dihydroxy-6-(hydroxymethyl)-4-(4-(3,4,5-trifluorophenyl)-1H-1,2,3-triazol-1-yl)tetrahydro-2H-pyran-2-yl)thio)-N-methylacetamide [Example 2.44.206R.]”, the IC50 was 440 nM in experiment [1] (setting [2]) and 1480 nM on human Gal-1 (hGal-1).
In the case of `CO[C@@H]1[C@@H](n2cc(-c3cc(F)c(F)c(F)c3)nn2)[C@@H](O)[C@@H](CO)O[C@H]1S[C@@H](C(=O)N1CCC(F)(F)CC1)C1(O)CCC(F)(F)CC1` [Example 2.44.226R.I., (R)-2-(4,4-difluoro-1-hydroxycyclohexyl)-1-(4,4-difluoropiperidin-1-yl)-2-(((2S,3R,4S,5R,6R)-5-hydroxy-6-(hydroxymethyl)-3-methoxy-4-(4-(3,4,5-trifluorophenyl)-1H-1,2,3-triazol-1-yl)tetrahydro-2H-pyran-2-yl)thio)ethan-1-one], the IC50 in experiment [1] (setting [3]) came out at 890 nM; on human Gal-1 (hGal-1), 5730 nM.
On to `CN(CC(C)(C)F)C(=O)[C@H](S[C@@H]1O[C@H](CO)[C@H](O)[C@H](n2cc(-c3cc(F)c(F)c(F)c3)nn2)[C@H]1O)C1(O)CCCCC1` [Example 2.39.222R., (R)-2-(((2S,3R,4S,5R,6R)-3,5-Dihydroxy-6-(hydroxymethyl)-4-(4-(3,4,5-trifluorophenyl)-1H-1,2,3-triazol-1-yl)tetrahydro-2H-pyran-2-yl)thio)-N-(2-fluoro-2-methylpropyl)-2-(1-hydroxycyclohexyl)-N-methylacetamide], for which the figures for the IC50 (in experiment [1] (setting [2]); on human Gal-1 (hGal-1)) were 10200 nM and 38100 nM, respectively.
Consider `CN(CC(C)(C)C)C(=O)C(S[C@@H]1O[C@H](CO)[C@H](O)[C@H](n2cc(-c3cc(F)c(F)c(F)c3)nn2)[C@H]1O)C1(O)CCCC1` (stereo partly drawn) [Example 2.38.228., 2-(((2S,3R,4S,5R,6R)-3,5-Dihydroxy-6-(hydroxymethyl)-4-(4-(3,4,5-trifluorophenyl)-1H-1,2,3-triazol-1-yl)tetrahydro-2H-pyran-2-yl)thio)-2-(1-hydroxycyclopentyl)-N-methyl-N-neopentylacetamide], for which the results for the IC50 (in experiment [1] (setting [2]); at human Gal-1 (hGal-1)) were 150 nM and 170 nM, respectively.
Consider `CN(C(=O)[C@@H](S[C@@H]1O[C@H](CO)[C@H](O)[C@H](n2cc(-c3cc(F)c(F)c(F)c3)nn2)[C@H]1O)C1(O)CCOCC1)c1cccnc1` [Example 2.41.234S.], for which the IC50 in experiment [1] (Table 9, hGal-3, read-out: IC50 (Gal-3 inhibition)) stood at 100 nM; on human Gal-1 (hGal-1), 100 nM.
Take `O=C(C(S[C@@H]1O[C@H](CO)[C@H](O)[C@H](n2cc(-c3cc(F)c(F)c(F)c3)nn2)[C@H]1O)C1(O)CCC1)N1CCCCC1` (stereo partly drawn) [Example 2.34.208., 2-(((2S,3R,4S,5R,6R)-3,5-Dihydroxy-6-(hydroxymethyl)-4-(4-(3,4,5-trifluorophenyl)-1H-1,2,3-triazol-1-yl)tetrahydro-2H-pyran-2-yl)thio)-2-(1-hydroxycyclobutyl)-1-(piperidin-1-yl)ethan-1-one]: the IC50 in experiment [1] (setting [2]) turned out to be 380 nM; on human Gal-1 (hGal-1), 520 nM.
Take `CCN(C)C(=O)[C@@H](S[C@@H]1O[C@H](CO)[C@H](O)[C@H](n2cc(-c3cc(F)c(F)c(F)c3)nn2)[C@H]1OC)C1(O)CCN(C(=O)NC2CC2)CC1` [Example 2.49.226S.I., N-Cyclopropyl-4-((S)-2-(ethyl(methyl)amino)-1-(((2S,3R,4S,5R,6R)-5-hydroxy-6-(hydroxymethyl)-3-methoxy-4-(4-(3,4,5-trifluorophenyl)-1H-1,2,3-triazol-1-yl)tetrahydro-2H-pyran-2-yl)thio)-2-oxoethyl)-4-hydroxypiperidine-1-carboxamide]: the IC50 amounted to 60 nM in experiment [1] (Table 8, hGal-3, read-out: IC50 (Gal-3 inhibition)) and 1700 nM on human Gal-1 (hGal-1).
As to `CN(CC1(F)CCCC1)C(=O)[C@@H](S[C@@H]1O[C@H](CO)[C@H](O)[C@H](n2cc(-c3cc(F)c(F)c(F)c3)nn2)[C@H]1O)C1(O)CCC(F)(F)CC1` [Example 2.44.223S., (S)-2-(4,4-Difluoro-1-hydroxycyclohexyl)-2-(((2S,3R,4S,5R,6R)-3,5-dihydroxy-6-(hydroxymethyl)-4-(4-(3,4,5-trifluorophenyl)-1H-1,2,3-triazol-1-yl)tetrahydro-2H-pyran-2-yl)thio)-N-((1-fluorocyclopentyl)methyl)-N-methylacetamide], the values for the IC50 (in experiment [1] (setting [2]); at human Gal-1 (hGal-1)) were 70 nM and 80 nM, respectively.
In the case of `CN(Cc1cn(C)cn1)C(=O)C(S[C@@H]1O[C@H](CO)[C@H](O)[C@H](n2cc(-c3cc(F)c(F)c(F)c3)nn2)[C@H]1O)C1(O)CCOCC1` (stereo partly drawn) [Example 2.41.215., 2-(((2S,3R,4S,5R,6R)-3,5-Dihydroxy-6-(hydroxymethyl)-4-(4-(3,4,5-trifluorophenyl)-1H-1,2,3-triazol-1-yl)tetrahydro-2H-pyran-2-yl)thio)-2-(4-hydroxytetrahydro-2H-pyran-4-yl)-N-methyl-N-((1-methyl-1H-imidazol-4-yl)methyl)acetamide], the IC50 in experiment [1] (Gal-3 inhibition, Table 4, read-out: IC50) was determined as 60 nM; on human Gal-1 (hGal-1) it was 370 nM.
As to `CN(CC(C)(C)C)C(=O)C(S[C@@H]1O[C@H](CO)[C@H](O)[C@H](n2cc(-c3cc(F)c(F)c(F)c3)nn2)[C@H]1O)C1(O)CCC1` (stereo partly drawn) [Example 2.34.228., 2-(((2S,3R,4S,5R,6R)-3,5-Dihydroxy-6-(hydroxymethyl)-4-(4-(3,4,5-trifluorophenyl)-1H-1,2,3-triazol-1-yl)tetrahydro-2H-pyran-2-yl)thio)-2-(1-hydroxycyclobutyl)-N-methyl-N-neopentylacetamide], the IC50 was 310 nM in experiment [1] (setting [2]) and 160 nM at human Gal-1 (hGal-1).
Turning to `CNC(=O)C(S[C@@H]1O[C@H](CO)[C@H](O)[C@H](n2cc(-c3cc(F)c(F)c(F)c3)nn2)[C@H]1OC)C1(O)CCC(F)(F)CC1` (stereo partly drawn) [Example 2.44.248.I., 2-(4,4-Difluoro-1-hydroxycyclohexyl)-2-(((2S,3R,4S,5R,6R)-5-hydroxy-6-(hydroxymethyl)-3-methoxy-4-(4-(3,4,5-trifluorophenyl)-1H-1,2,3-triazol-1-yl)tetrahydro-2H-pyran-2-yl)thio)-N-methylacetamide], the IC50 in experiment [1] (setting [3]) is 490 nM; on human Gal-1 (hGal-1), 730 nM.
